Experiments:
[1] = tested on: B6EiC3Sn a/A-Otc^spf-ash/J (Otc^spf-ash) mice; test: Barnes maze, cognitive functions in OTC knockout mice (animal model of urea cycle disorders); format: in vivo; settings: 50 mg/kg body weight/d orally via gavage for 15 days, FIG. 4A-C
Method: Eight-week old B6EiC3Sn a/A-Otc^spf-ash/J (Otc^spf-ash) mice were treated with cinnamein (50 mg/kg body weight/d) and cinnamic acid (50 mg/kg body weight/d) orally via gavage for 15 days followed by monitoring cognitive functions by Barnes maze (FIG. 4A, representative track plots summarizing the overall activity of mice on the apparatus recorded with a Noldus camera and visualized by Ethovision XT software; FIG. 4B, errors; FIG. 4C, latency). Results are mean+SEM of three mice per group. ***p<0.001.
Cognitive deficit is common in individuals with inherited urea cycle disorders (UCDs). […] See for example Qureshi et al., “Ornithine Transcarbamylase Deficiency in Mutant Mice I. Studies on the Characterization of Enzyme Defect and Suitability as Animal Model of Human Disease,” (1979) Pediat. Res. 13: pp 807-811; Hodges et al., “The spf^ash mouse: A missense mutation in the ornithine transcarbamylase gene also causes aberrant mRNA splicing,” (1989) Proc. Natl. Acad. Sci. USA 86: pp. 4142-4146. OTC knockout B6EiC3Sn a/A-Otc^spf-ash/J (Otc^spf-ash) mice were obtained from the Jackson Lab. Cinnamein was purchased from Sigma. Cinnamic acid was bought from Spectrum Chemicals.

[2] = tested on: lenti-GLDC shRNA-insulted mice; test: Level of glycine in serum and cortex of lenti-GLDC shRNA-insulted mice (fluorometric assay kit); format: in vivo, C57/BL6 mice; settings: 50 mg/kg body wt/d daily via gavage, 14 d of treatment; for level of glycine in serum: FIG. 3A; for level of glycine in cortex: FIG. 3B
Method: C57/BL6 mice (8-10 week old) received lentiviral GLDC shRNA (1×107 IFU/mouse in 100 μl Hank's Balanced Salt Solution or HBSS) once via tail-vein injection. Therefore, control mice also received 100 μl HBSS via tail-vein. From 7 d after lenti-GLDC shRNA injection, mice were treated with cinnamein (50 mg/kg body wt/d) and cinnamic acid (50 mg/kg body wt/d) daily via gavage. After 14 d of treatment, the level of glycine was measured in serum (A) and cortex (B) by using a fluorometric assay kit (Biovision). Each mouse sample was run in triplicate. Results are mean+SEM of five mice per group. ***p<0.001.
(§1) C57/BL6 mice (8-10 week-old) received lentiviral GLDC shRNA (1×107 IFU/mouse in 100 μl Hank's Balanced Salt Solution or HBSS) once via tail-vein injection. The group of control mice received only 100 μl HBSS via tail-vein injection. Oral administration of cinnamein occurred from 7 d after lenti-GLDC shRNA injection. Mice were treated with 50 mg/kg body wt/d of cinnamein daily via gavage. Cinnamein (Sigma) was solubilized in 100 μl 0.5% methyl cellulose before gavage. Therefore, one group of lenti-GLDC shRNA-insulted mice were also treated with 100 μl 0.5% methyl cellulose as vehicle control. For comparison, one group of lenti-GLDC shRNA-insulted mice were also treated with 50 mg/kg body wt/d of cinnamic acid daily via gavage.
(§2) On 14 d of treatment, mice were sacrificed, and level of glycine was measured in serum and brain.

[3] = tested on: lenti-GLDC shRNA-insulted mice; test: Barnes maze, spatial learning and memory in lenti-GLDC shRNA-insulted mice; format: in vivo, C57/BL6 mice; settings: 50 mg/kg body wt/d daily via gavage, after 10 d of treatment; for latency in reaching the target hole: FIG. 2B; for errors in reaching the target hole: FIG. 2C
Method: (§3) C57/BL6 mice (8-10 week old) received lentiviral GLDC shRNA (1×107 IFU/mouse in 100 μl HBSS) once via tail-vein injection. Therefore, control mice also received 100 μl HBSS via tail-vein. From 7 d after lenti-GLDC shRNA injection, mice were treated with cinnamein (50 mg/kg body wt/d) and cinnamic acid (50 mg/kg body wt/d) daily via gavage. After 10 d of treatment, spatial learning and memory was monitored by Barnes maze (A, heat map; B, latency; C, errors). Results are mean+SEM of five mice per group. *p<0.05; **p<0.01; ***p<0.001.
as §1
Next, mice were monitored for spatial learning and memory by Barnes maze. Here, mice were trained for two consecutive days followed by examination on day three. During training, the overnight food-deprived mouse was placed in the middle of the maze in a 10 cm high cylindrical start chamber. After 10 s, the start chamber was removed to allow the mouse to move around the maze to find out the color food chips in the baited tunnel.

[4] = tested on: lenti-GLDC shRNA-insulted mice; test: Open field test of locomotor activities in lenti-GLDC shRNA-insulted mice; format: in vivo, C57/BL6 mice; settings: 50 mg/kg body wt/d daily via gavage, after 10 d of treatment, FIG. 1A-D
Method: as §3, with “locomotor activities were” for “spatial learning and memory was”, “open field (FIG. 1A,” for “Barnes maze (A,”, “FIG. 1B, distance traveled; FIG. 1C, velocity; FIG. 1D, center zone frequency).” for “B, latency; C, errors).”
C57/BL6 mice (8-10 week-old) received lentiviral GLDC shRNA (1×107 IFU/mouse in 100 μl Hank's Balanced Salt Solution or HBSS) once via tail-vein injection. The group of control mice received only 100 μl HBSS via tail-vein injection. Oral administration of cinnamein occurred from 7 d after lenti-GLDC shRNA injection. Mice were treated with 50 mg/kg body wt/d of cinnamein daily via gavage. Cinnamein (Sigma) was solubilized in 100 μl 0.5% methyl cellulose before gavage. […]
After 10 d of treatment with cinnamein and cinnamic acid, mice were monitored for locomotor activities by open field test. […] Each mouse was placed individually on the center of the arena and the performance was monitored by the live video tracking system.

[5] = Observation of side effects during drug treatment; format: in vivo, C57/BL6 mice; settings: 50 mg/kg body wt/d daily via gavage, during drug treatment (14 d)
Method: as §1, §2

Structure (SMILES)	cognitive functions (Barnes maze errors and latency) [1]	level of glycine in serum [2]	level of glycine in cortex [2]	latency in reaching the target hole [3]	errors in reaching the target hole [3]	locomotor activities (heat map, total distance travelled, velocity, center zone frequency) [4]	side effects including hair loss, weight loss, diarrhea, or untoward infection [5]
O=C(O)C=Cc1ccccc1 [cinnamic acid]	recovers cognitive functions	significantly inhibited	significantly inhibited	significantly reduced	significantly reduced	improved locomotor activities	No other side effects were observed
O=C(C=Cc1ccccc1)OCc1ccccc1 [cinnamein, 3-phenyl-2-propenoic acid phenylmethyl ester]	recovers cognitive functions	significantly inhibited	significantly inhibited	significantly reduced	significantly reduced	improved locomotor activities	No other side effects were observed

Reference: patent publication US20230255910A1, “USE OF A CINNAMEIN COMPOSITION FOR THE TREATMENT OF GLYCINE ENCEPHALOPATHY AND UREA CYCLE DISORDERS” (Rush University Medical Center, priority 2020, published 2023)
